Measured values published in patent US11987588B2, “Modulators of the beta-3 adrenergic receptor useful for the treatment or prevention of heart failure and disorders related thereto” (Arena Pharmaceuticals, Inc., priority 2017, dated 2024).

target: Beta-3 Adrenergic Receptor (Homo sapiens (Human), UniProt P13945); test: Homogeneous Time-Resolved Fluorescence (HTRF) cAMP antagonist assay, IC50 determination; format: cell-based; settings: CHO-K1 cells stably expressing recombinant receptor, isoproterenol at EC90
Summary of the method: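 Antagonist mode: isoproterenol at its predetermined EC90 added after compound to recombinant CHO-K1 cells in IBMX-containing PBS, 1 h, room temperature. Compounds tested as 5-fold, 10-point dilutions, top final typically 10 or 100 μM. HTRF signal converted to cAMP via standard curve, giving IC50.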

Beta-3 Adrenergic Receptor, sequence (P13945 whole entry, species assumed): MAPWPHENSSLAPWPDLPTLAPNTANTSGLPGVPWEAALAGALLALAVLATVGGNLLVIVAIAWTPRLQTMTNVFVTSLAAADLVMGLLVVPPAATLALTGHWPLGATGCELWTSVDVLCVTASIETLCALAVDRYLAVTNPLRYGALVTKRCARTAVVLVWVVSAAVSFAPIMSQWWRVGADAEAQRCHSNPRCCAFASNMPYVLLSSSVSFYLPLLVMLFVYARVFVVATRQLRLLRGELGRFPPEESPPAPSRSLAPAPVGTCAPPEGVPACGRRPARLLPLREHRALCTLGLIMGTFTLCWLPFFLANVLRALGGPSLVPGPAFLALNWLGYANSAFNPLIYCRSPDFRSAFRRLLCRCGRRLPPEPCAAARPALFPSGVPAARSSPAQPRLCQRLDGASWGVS

| SMILES | IC50 |
| --- | --- |
| CNS(=O)(=O)c1cccc(OC[C@@H](O)CNC2COC3(CCN(S(=O)(=O)c4cccc(-c5ccccn5)c4)CC3)C2)c1 (stereo partly drawn) [Compound 102, 3-((2S)-2-hydroxy-3-(8-(3-(pyridin-2-yl)phenylsulfonyl)-1-oxa-8-azaspiro[4.5]decan-3-ylamino)propoxy)-N-methylbenzenesulfonamide] | 26 nM |
| CNS(=O)(=O)c1cccc(OC[C@@H](O)CNC2COC3(CCN(S(=O)(=O)c4ccc(F)c(F)c4)CC3)C2)c1 (stereo partly drawn) [Compound 141, 3-((2S)-3-(8-(3,4-difluorophenylsulfonyl)-1-oxa-8-azaspiro[4.5]decan-3-ylamino)-2-hydroxypropoxy)-N-methylbenzenesulfonamide] | 35.1 nM |
| C[C@@H](NS(=O)(=O)c1cccc(OC[C@@H](O)CNC2COC3(CCN(S(=O)(=O)c4ccc5ccccc5c4)CC3)C2)c1)C(C)(C)C (stereo partly drawn) [Compound 100, N—((R)-3,3-dimethylbutan-2-yl)-3-((2S)-2-hydroxy-3-(8-(naphthalen-2-ylsulfonyl)-1-oxa-8-azaspiro[4.5]decan-3-ylamino)propoxy)benzenesulfonamide] | 256 nM |
| CNS(=O)(=O)c1cccc(OC[C@@H](O)CN[C@H]2COC3(CCN(S(=O)(=O)c4cnn(-c5ccccc5)c4C)CC3)C2)c1 [Compound 281, 3-((S)-2-hydroxy-3-((R)-8-(5-methyl-1-phenyl-1H-pyrazol-4-ylsulfonyl)-1-oxa-8-azaspiro[4.5]decan-3-ylamino)propoxy)-N-methylbenzenesulfonamide] | 10.7 nM |
| O=S(=O)(NCC1CC1)c1cccc(OC[C@@H](O)CNC2COC3(CCN(S(=O)(=O)c4ccc5ccccc5c4)CC3)C2)c1 (stereo partly drawn) [Compound 8, N-(cyclopropylmethyl)-3-((2S)-2-hydroxy-3-(8-(naphthalen-2-ylsulfonyl)-1-oxa-8-azaspiro[4.5]decan-3-ylamino)propoxy)benzenesulfonamide] | 38.7 nM |
| CNS(=O)(=O)c1cccc(OC[C@@H](O)CNC2COC3(CCN(S(=O)(=O)c4ccc(-c5ccc(C(F)(F)F)cc5)cc4)CC3)C2)c1 (stereo partly drawn) [Compound 121, 3-((2S)-2-hydroxy-3-(8-(4′-(trifluoromethyl)biphenyl-4-ylsulfonyl)-1-oxa-8-azaspiro[4.5]decan-3-ylamino)propoxy)-N-methylbenzenesulfonamide] | 67 nM |
| CNS(=O)(=O)c1cccc(OC[C@@H](O)CN[C@H]2COC3(CCN(S(=O)(=O)c4cccc(-c5ccc(CN)cc5)c4)CC3)C2)c1 [Compound 289, 3-((S)-3-((R)-8-(4′-(aminomethyl)biphenyl-3-ylsulfonyl)-1-oxa-8-azaspiro[4.5]decan-3-ylamino)-2-hydroxypropoxy)-N-methylbenzenesulfonamide] | 16.5 nM |
| CCCn1cc(-c2cccc(S(=O)(=O)N3CCC4(CC3)CC(NC[C@H](O)COc3cccc(S(=O)(=O)NC)c3)CO4)c2)cn1 (stereo partly drawn) [Compound 80, 3-((2S)-2-hydroxy-3-(8-(3-(1-propyl-1H-pyrazol-4-yl)phenylsulfonyl)-1-oxa-8-azaspiro[4.5]decan-3-ylamino)propoxy)-N-methylbenzenesulfonamide] | 14.3 nM |
| CNS(=O)(=O)c1cccc(OC[C@@H](O)CNC2COC3(CCN(S(=O)(=O)c4cc(Cl)ccc4OC)CC3)C2)c1 (stereo partly drawn) [Compound 148, 3-((2S)-3-(8-(5-chloro-2-methoxyphenylsulfonyl)-1-oxa-8-azaspiro[4.5]decan-3-ylamino)-2-hydroxypropoxy)-N-methylbenzenesulfonamide] | 11 nM |
| CNS(=O)(=O)c1cccc(OC[C@@H](O)CNC2COC3(CCN(S(=O)(=O)c4cccc(-c5cccc(CO)c5)c4)CC3)C2)c1 (stereo partly drawn) [Compound 118, 3-((2S)-2-hydroxy-3-(8-(3′-(hydroxymethyl)biphenyl-3-ylsulfonyl)-1-oxa-8-azaspiro[4.5]decan-3-ylamino)propoxy)-N-methylbenzenesulfonamide] | 24.1 nM |
| CNS(=O)(=O)c1cccc(OC[C@@H](O)CNC2COC3(CCN(S(=O)(=O)c4ccc(-c5ccccc5)s4)CC3)C2)c1 (stereo partly drawn) [Compound 187, 3-((2S)-2-hydroxy-3-(8-(5-phenylthiophen-2-ylsulfonyl)-1-oxa-8-azaspiro[4.5]decan-3-ylamino)propoxy)-N-methylbenzenesulfonamide] | 7.72 nM |
| CNS(=O)(=O)c1cccc(OC[C@@H](O)CNC2COC3(CCN(S(=O)(=O)c4cccc(-c5cccc(S(=O)(=O)N(C)C)c5)c4)CC3)C2)c1 (stereo partly drawn) [Compound 115, 3′-(3-((S)-2-hydroxy-3-(3-(N-methylsulfamoyl)phenoxy)propylamino)-1-oxa-8-azaspiro[4.5]decan-8-ylsulfonyl)-N,N-dimethylbiphenyl-3-sulfonamide] | 33.5 nM |
| CNS(=O)(=O)c1cccc(OC[C@@H](O)CNC2COC3(CCN(S(=O)(=O)c4ccc(C(F)(F)F)cc4)CC3)C2)c1 (stereo partly drawn) [Compound 45, 3-((2S)-2-hydroxy-3-(8-(4-(trifluoromethyl)phenylsulfonyl)-1-oxa-8-azaspiro[4.5]decan-3-ylamino)propoxy)-N-methylbenzenesulfonamide] | 19.4 nM |

Second part, the compound after the results:

| IC50 | SMILES |
| --- | --- |
| 58 nM | CNS(=O)(=O)c1cccc(OC[C@@H](O)CNC2COC3(CCN(S(=O)(=O)c4cccc(-c5ccc(CNC(=O)CN)cc5)c4)CC3)C2)c1 (stereo partly drawn) [Compound 353, 2-amino-N-((3′-(3-((S)-2-hydroxy-3-(3-(N-methylsulfamoyl)phenoxy)propylamino)-1-oxa-8-azaspiro[4.5]decan-8-ylsulfonyl)biphenyl-4-yl)methyl)acetamide] |
| 16.9 nM | O=S(=O)(NCCF)c1cccc(OC[C@@H](O)CNC2COC3(CCN(S(=O)(=O)c4ccc5ccccc5c4)CC3)C2)c1 (stereo partly drawn) [Compound 356, N-(2-fluoroethyl)-3-((2S)-2-hydroxy-3-(8-(naphthalen-2-ylsulfonyl)-1-oxa-8-azaspiro[4.5]decan-3-ylamino)propoxy)benzenesulfonamide] |
| 26.4 nM | NS(=O)(=O)c1cccc(OC[C@@H](O)CN[C@@H]2COC3(CCN(S(=O)(=O)c4cnc5cc[nH]c5c4)CC3)C2)c1 [Compound 563, 3-((S)-3-((S)-8-(1H-pyrrolo[3,2-b]pyridin-6-ylsulfonyl)-1-oxa-8-azaspiro[4.5]decan-3-ylamino)-2-hydroxypropoxy)benzenesulfonamide] |
| 31.6 nM | CNCc1ccc(-c2cccc(S(=O)(=O)N3CCC4(CC3)CC(NC[C@H](O)COc3cccc(S(=O)(=O)NC)c3)CO4)c2)cc1 (stereo partly drawn) [Compound 301, 3-((2S)-2-hydroxy-3-(8-(4′-((methylamino)methyl)biphenyl-3-ylsulfonyl)-1-oxa-8-azaspiro[4.5]decan-3-ylamino)propoxy)-N-methylbenzenesulfonamide] |
| 36.9 nM | CNS(=O)(=O)c1cccc(OC[C@@H](O)CN[C@H]2COC3(CCN(S(=O)(=O)c4ccc5c(n4)OCC(=O)N5)CC3)C2)c1 [Compound 443, 3-((S)-2-hydroxy-3-((R)-8-(2-oxo-2,3-dihydro-1H-pyrido[2,3-b][1,4]oxazin-6-ylsulfonyl)-1-oxa-8-azaspiro[4.5]decan-3-ylamino)propoxy)-N-methylbenzenesulfonamide] |
| 26.3 nM | CNS(=O)(=O)c1cccc(OC[C@@H](O)CN[C@H]2COC3(CCN(S(=O)(=O)c4cnc5c(c4)N(CCO)CCO5)CC3)C2)c1 [Compound 465, 3-((S)-2-hydroxy-3-((R)-8-(1-(2-hydroxyethyl)-2,3-dihydro-1H-pyrido[2,3-b][1,4]oxazin-7-ylsulfonyl)-1-oxa-8-azaspiro[4.5]decan-3-ylamino)propoxy)-N-methylbenzenesulfonamide] |
